Measurements reported in patent US9771334B2, “Triketone compound and preparation method and use thereof” (SHANDONG CYNDA CHEMICAL CO., LTD., priority 2013, dated 2017).

Legend:
Assay in all cases: Herbicidal activity, pot culture method (primary and secondary screening test)
Type in all cases: in vivo
Settings in all cases: primary screening, pot culture, 150 g/ha, sprayed at 3-leaf stage, result 15 days later
[1] = tested on: abutilon theophrasti
Source text: (§1) This test example is for describing the herbicidal activity inhibition ratio (%) (the dose is 150 g/ha) of the compound with a structure shown in Formula (I). Primary screening test (pot culture method): The test targets are abutilon theophrasti, digitaria sanguinalis, amaranthus retroflexus, echinochloa crusgalli, eclipta prostrata and setaria viridis. Take flowerpots with an inner diameter of 6 cm, put composite soil (vegetable garden soil:seedling matrix=1:2, v/v) into them till 3⁄4 of flowerpot height, directly sow the above six weed targets (budding rate>85%), cover them with 0.2 cm thick soil, and keep them for future use when the weeds grow to 3-leaf stage. Each compound is dissolved in N,N-dimethylformamide at a dose of 150 g/ha and diluted with distilled water into a 0.2 g/L solution. The solution is sprayed through an automatic spray tower. After the solution on weed leaves is aired dry, the flowerpots are moved into a greenhouse for cultivation. The result is investigated 15 days later. By the same method adopted in primary screening test, a secondary screening test is done on some typical compounds, such as: 5, 6, 20, 21, 23, 34, 47, 65, 66, 70 and 91 at a reduced dose, and the test result is compared with mesotrione which is commercially available and has a good herbicidal effect. The test method is same as that adopted in primary screening test. Mesotrione is bought from Hubei […] Chemical Co., Ltd.

[2] = tested on: amaranthus retroflexus
Source text: as §1

[3] = tested on: digitaria sanguinalis
Source text: as §1

[4] = tested on: echinochloa crusgalli
Source text: as §1

[5] = tested on: eclipta prostrata
Source text: as §1

[6] = tested on: setaria viridis
Source text: as §1

SMILES | herbicidal activity inhibition ratio (%), Abutilon theophrasti [1] [%] | herbicidal activity inhibition ratio (%), Amaranthus retroflexus [2] [%] | herbicidal activity inhibition ratio (%), Digitaria sanguinalis [3] [%] | herbicidal activity inhibition ratio (%), Echinochloa crusgalli [4] [%] | herbicidal activity inhibition ratio (%), Eclipta prostrata [5] [%] | herbicidal activity inhibition ratio (%), Setaria viridis [6] [%]
Cc1ccc(-n2c(=O)c3cc(C(=O)C4=C(O)CCCC4=O)ccc3n(C)c2=O)cc1 [Compound 14] | 75 | 100 | 75 | 75 | 75 | 75
CCCn1c(=O)n(-c2ccccc2C)c(=O)c2cc(C(=O)C3=C(O)CC(C)(C)CC3=O)ccc21 [Compound 72] | 100 | 20 | 20 | 30 | 60 | 30
Cn1c(=O)n(-c2ccccc2F)c(=O)c2cc(C(=O)C3=C(O)CC(C)(C)CC3=O)ccc21 [Compound 13] | 100 | 100 | 90 | 90 | 90 | 100
Cc1c(C(=O)C2=C(O)CCCC2=O)ccc2c1c(=O)n(-c1ccccc1C(F)(F)F)c(=O)n2C [Compound 92, 6-[(2-hydroxy-6-oxo-1-cyclohexenyl)carbonyl]-1,5-dimethyl-3-(2-(trifluoromethyl)phenyl)quinazoline-2,4(1H,3H)-dione] | 100 | 100 | 100 | 100 | 100 | 100
Cn1c(=O)n(-c2ccc([N+](=O)[O-])cc2)c(=O)c2cc(C(=O)C3=C(O)CCCC3=O)ccc21 [Compound 45] | 60 | 90 | 40 | 50 | 83 | 10
CCn1c(=O)n(-c2ccccc2C)c(=O)c2cc(C(=O)C3=C(O)CC(C)(C)CC3=O)ccc21 [Compound 69] | 100 | 95 | 30 | 90 | 88 | 85
Cc1cccc(-n2c(=O)c3cc(C(=O)C4=C(O)CCCC4=O)ccc3n(C)c2=O)c1 [Compound 17] | 70 | 100 | 75 | 70 | 95 | 100
Cn1c(=O)n(-c2ccccc2)c(=O)c2cc(C(=O)C3=C(O)CCCC3=O)ccc21 [Compound 35] | 80 | 100 | 65 | 65 | 70 | 50
Cn1c(=O)n(-c2ccc(F)cc2)c(=O)c2cc(C(=O)C3=C(O)CCCC3=O)ccc21 [Compound 9] | 100 | 100 | 75 | 85 | 95 | 100
Cn1c(=O)n(-c2cc(C(F)(F)F)ccc2Cl)c(=O)c2cc(C(=O)C3=C(O)CC(C)(C)CC3=O)ccc21 [Compound 61] | 65 | 0 | 25 | 0 | 20 | 10
Cn1c(=O)n(-c2ccccc2Br)c(=O)c2cc(C(=O)C3=C(O)CCCC3=O)ccc21 [Compound 27] | 83 | 100 | 90 | 90 | 80 | 60
COc1cccc(-n2c(=O)c3cc(C(=O)C4=C(O)CC(C)(C)CC4=O)ccc3n(C)c2=O)c1 [Compound 56] | 55 | 80 | 55 | 60 | 75 | 60
Cn1c(=O)n(-c2cccc3ccccc23)c(=O)c2cc(C(=O)C3=C(O)CCCC3=O)ccc21 [Compound 44] | 85 | 100 | 75 | 65 | 0 | 60
Cc1ccccc1-n1c(=O)c2cc(C(=O)C3=C(O)CCCC3=O)ccc2n(Cc2ccccc2F)c1=O [Compound 83] | 0 | 0 | 30 | 50 | 90 | 50
Cc1ccccc1-n1c(=O)c2cc(C(=O)C3=C(O)CC(C)(C)CC3=O)ccc2n(C)c1=S [Compound 87, 6-[(2-hydroxy-4,4-dimethyl-6-oxo-1-cyclohexenyl)carbonyl]-1-methyl-2-thio-3-(o-tolyl)-2,3-dihydroxyquinazoline-4(1H)-ketone] | 0 | 0 | 0 | 25 | 0 | 10
Cn1c(=O)n(-c2ccccc2C(F)(F)F)c(=O)c2cc(C(=O)C3=C(O)CCCC3=O)ccc21 [Compound 38] | 90 | 100 | 85 | 90 | 75 | 80
Cc1cccc(Cl)c1-n1c(=O)c2cc(C(=O)C3=C(O)CC(C)(C)CC3=O)ccc2n(C)c1=O [Compound 96] | 95 | 100 | 30 | 55 | 83 | 95
Cn1c(=O)n(-c2ccc(OC(F)(F)F)cc2)c(=O)c2cc(C(=O)C3=C(O)CC(C)(C)CC3=O)ccc21 [Compound 49] | 100 | 95 | 90 | 65 | 80 | 50
CCCn1c(=O)n(-c2ccccc2C)c(=O)c2cc(C(=O)C3=C(O)CCCC3=O)ccc21 [Compound 71] | 95 | 85 | 25 | 80 | 98 | 98
Cn1c(=O)n(-c2ccc(Cl)cc2Cl)c(=O)c2cc(C(=O)C3=C(O)CCCC3=O)ccc21 [Compound 62] | 100 | 88 | 65 | 83 | 20 | 93
